Legend:
Settings in all cases: three weeks after treatment
Amaranthus tuberculatus [1] = assay: Pre-emergence herbicidal evaluation, AMATA; format: in vivo
Description: (§1) The treated pots are then placed on greenhouse benches, watered and cared for in accordance with conventional greenhouse procedures.

Alopecurus myosuroides [2] = assay: Pre-emergence herbicidal evaluation, ALOMY; format: in vivo
Description: as §1

Apera spica venti [3] = assay: Pre-emergence herbicidal evaluation, APESV; format: in vivo
Description: as §1

Echinochloa crus-galli [4] = assay: Pre-emergence herbicidal evaluation, ECHCG; format: in vivo
Description: as §1

Setaria viridis [5] = assay: Pre-emergence herbicidal evaluation, SETVI; format: in vivo
Description: as §1

Lolium perenne [6] = assay: Pre-emergence herbicidal evaluation, LOLPE; format: in vivo
Description: as §1

Triticum aestivum [7] = assay: Pre-emergence herbicidal evaluation, TRZAW; format: in vivo
Description: as §1

Hordeum vulgare [8] = assay: Pre-emergence herbicidal evaluation, HORVW; format: in vivo
Description: as §1

Zea mays [9] = assay: Pre-emergence herbicidal evaluation, ZEAMX; format: in vivo
Description: as §1

Glycine max [10] = assay: Pre-emergence herbicidal evaluation, GLXMA; format: in vivo
Description: as §1

Oryza sativum [11] = assay: Pre-emergence herbicidal evaluation, ORYSA; format: in vivo
Description: as §1

Amaranthus tuberculatus [12] = assay: Post-emergence herbicidal evaluation, AMATA; format: in vivo
Galium aparine = assay: Post-emergence herbicidal evaluation, GALAP
Alopecurus myosuroides [13] = assay: Post-emergence herbicidal evaluation, ALOMY
Apera spica venti [14] = assay: Post-emergence herbicidal evaluation, APESV
Echinochloa crus-galli [15] = assay: Post-emergence herbicidal evaluation, ECHCG
Setaria viridis [16] = assay: Post-emergence herbicidal evaluation, SETVI
Lolium perenne [17] = assay: Post-emergence herbicidal evaluation, LOLPE
Triticum aestivum [18] = assay: Post-emergence herbicidal evaluation, TRZAW
Description: Each pot is examined three weeks after treatment and phytotoxicity is assessed according to the rating system set forth below.
These acetone solutions are diluted with water and the resulting formulations applied at dosage levels equivalent of about 0.4 to 0.1 kg per hectare of test compound per pot. After spraying the plants are placed on greenhouse benches and are cared for in the usual manner, commensurate with conventional greenhouse practices.

Hordeum vulgare [19] = assay: Post-emergence herbicidal evaluation, HORVW
Zea mays [20] = assay: Post-emergence herbicidal evaluation, ZEAMX
Glycine max [21] = assay: Post-emergence herbicidal evaluation, GLXMA
Oryza sativum [22] = assay: Post-emergence herbicidal evaluation, ORYSA

CCc1nnc(OCC(=O)N(CC)C2=CC(C)(C)CC(C)=C2)s1 [Example 6]
6 (6 - Herbicidal effect): phytotoxicity rating ALOMY (Alopecurus myosuroides [2]; 0.400 kg/ha) | phytotoxicity rating ECHCG (Echinochloa crus-galli [4]; 0.200 kg/ha)
2 (2 - Slight effect): phytotoxicity rating TRZAW (Triticum aestivum [7]; 0.800 kg/ha) | phytotoxicity rating ORYSA (Oryza sativum [22]; 0.400 kg/ha)
5 (5 - Definite injury): phytotoxicity rating AMATA (Amaranthus tuberculatus [1]; 0.800 kg/ha) | phytotoxicity rating ALOMY (Alopecurus myosuroides [2]; 0.200 kg/ha) | phytotoxicity rating SETVI (Setaria viridis [5]; 0.200 kg/ha) | phytotoxicity rating LOLPE (Lolium perenne [6]; 0.400 kg/ha)
7 (7 - Good herbicidal effect): phytotoxicity rating LOLPE (Lolium perenne [6]; 0.800 kg/ha) | phytotoxicity rating ORYSA (Oryza sativum [11]; 0.800 kg/ha)
1 (1 - Trace effect): phytotoxicity rating HORVW (Hordeum vulgare [8]; 0.400 kg/ha) | phytotoxicity rating APESV (Apera spica venti [14]; 0.400 kg/ha) | phytotoxicity rating TRZAW (Triticum aestivum [18]; 0.400 kg/ha) | phytotoxicity rating ORYSA (Oryza sativum [22]; 0.200 kg/ha)
8 (8 - Approaching complete kill): phytotoxicity rating ECHCG (Echinochloa crus-galli [4]; 0.400 kg/ha) | phytotoxicity rating SETVI (Setaria viridis [5]; 0.400 kg/ha) | phytotoxicity rating ALOMY (Alopecurus myosuroides [13]; 0.400 kg/ha)
0 (0 - No effect): phytotoxicity rating AMATA (Amaranthus tuberculatus [1]; 0.100 kg/ha) | phytotoxicity rating AMATA (Amaranthus tuberculatus [1]; 0.200 kg/ha) | phytotoxicity rating AMATA (Amaranthus tuberculatus [1]; 0.400 kg/ha) | phytotoxicity rating APESV (Apera spica venti [3]; 0.100 kg/ha) | phytotoxicity rating APESV (Apera spica venti [3]; 0.200 kg/ha) | phytotoxicity rating APESV (Apera spica venti [3]; 0.400 kg/ha) | phytotoxicity rating LOLPE (Lolium perenne [6]; 0.100 kg/ha) | phytotoxicity rating LOLPE (Lolium perenne [6]; 0.200 kg/ha) | phytotoxicity rating TRZAW (Triticum aestivum [7]; 0.100 kg/ha) | phytotoxicity rating TRZAW (Triticum aestivum [7]; 0.200 kg/ha) | phytotoxicity rating TRZAW (Triticum aestivum [7]; 0.400 kg/ha) | phytotoxicity rating HORVW (Hordeum vulgare [8]; 0.100 kg/ha) | phytotoxicity rating HORVW (Hordeum vulgare [8]; 0.200 kg/ha) | phytotoxicity rating ZEAMX (Zea mays [9]; 0.100 kg/ha) | phytotoxicity rating ZEAMX (Zea mays [9]; 0.200 kg/ha) | phytotoxicity rating ZEAMX (Zea mays [9]; 0.400 kg/ha) | phytotoxicity rating ZEAMX (Zea mays [9]; 0.800 kg/ha) | phytotoxicity rating GLXMA (Glycine max [10]; 0.100 kg/ha) | phytotoxicity rating GLXMA (Glycine max [10]; 0.200 kg/ha) | phytotoxicity rating GLXMA (Glycine max [10]; 0.400 kg/ha) | phytotoxicity rating GLXMA (Glycine max [10]; 0.800 kg/ha) | phytotoxicity rating ORYSA (Oryza sativum [11]; 0.100 kg/ha) | phytotoxicity rating ORYSA (Oryza sativum [11]; 0.200 kg/ha) | phytotoxicity rating AMATA (Amaranthus tuberculatus [12]; 0.100 kg/ha) | phytotoxicity rating AMATA (Amaranthus tuberculatus [12]; 0.200 kg/ha) | phytotoxicity rating AMATA (Amaranthus tuberculatus [12]; 0.400 kg/ha) | phytotoxicity rating GALAP (Galium aparine; 0.100 kg/ha) | phytotoxicity rating GALAP (Galium aparine; 0.200 kg/ha) | phytotoxicity rating ALOMY (Alopecurus myosuroides [13]; 0.100 kg/ha) | phytotoxicity rating APESV (Apera spica venti [14]; 0.100 kg/ha) | phytotoxicity rating APESV (Apera spica venti [14]; 0.200 kg/ha) | phytotoxicity rating ECHCG (Echinochloa crus-galli [15]; 0.100 kg/ha) | phytotoxicity rating ECHCG (Echinochloa crus-galli [15]; 0.200 kg/ha) | phytotoxicity rating ECHCG (Echinochloa crus-galli [15]; 0.400 kg/ha) | phytotoxicity rating SETVI (Setaria viridis [16]; 0.100 kg/ha) | phytotoxicity rating SETVI (Setaria viridis [16]; 0.200 kg/ha) | phytotoxicity rating SETVI (Setaria viridis [16]; 0.400 kg/ha) | phytotoxicity rating LOLPE (Lolium perenne [17]; 0.100 kg/ha) | phytotoxicity rating LOLPE (Lolium perenne [17]; 0.200 kg/ha) | phytotoxicity rating LOLPE (Lolium perenne [17]; 0.400 kg/ha) | phytotoxicity rating TRZAW (Triticum aestivum [18]; 0.100 kg/ha) | phytotoxicity rating TRZAW (Triticum aestivum [18]; 0.200 kg/ha) | phytotoxicity rating HORVW (Hordeum vulgare [19]; 0.100 kg/ha) | phytotoxicity rating HORVW (Hordeum vulgare [19]; 0.200 kg/ha) | phytotoxicity rating HORVW (Hordeum vulgare [19]; 0.400 kg/ha) | phytotoxicity rating ZEAMX (Zea mays [20]; 0.100 kg/ha) | phytotoxicity rating ZEAMX (Zea mays [20]; 0.200 kg/ha) | phytotoxicity rating ZEAMX (Zea mays [20]; 0.400 kg/ha) | phytotoxicity rating ORYSA (Oryza sativum [22]; 0.100 kg/ha)
9 (9 - Complete kill): phytotoxicity rating ALOMY (Alopecurus myosuroides [2]; 0.800 kg/ha) | phytotoxicity rating APESV (Apera spica venti [3]; 0.800 kg/ha) | phytotoxicity rating ECHCG (Echinochloa crus-galli [4]; 0.800 kg/ha) | phytotoxicity rating SETVI (Setaria viridis [5]; 0.800 kg/ha)
3 (3 - Moderate effect): phytotoxicity rating ECHCG (Echinochloa crus-galli [4]; 0.100 kg/ha) | phytotoxicity rating HORVW (Hordeum vulgare [8]; 0.800 kg/ha) | phytotoxicity rating ORYSA (Oryza sativum [11]; 0.400 kg/ha) | phytotoxicity rating GLXMA (Glycine max [21]; 0.100 kg/ha)
4 (4 - Injury): phytotoxicity rating GALAP (Galium aparine; 0.400 kg/ha) | phytotoxicity rating ALOMY (Alopecurus myosuroides [13]; 0.200 kg/ha) | phytotoxicity rating GLXMA (Glycine max [21]; 0.200 kg/ha) | phytotoxicity rating GLXMA (Glycine max [21]; 0.400 kg/ha)
